In the NIST ThermoML archive (doi:10.1021/acs.jced.6b00181):

Test: xn = mol fraction of the nth substance listed
Settings: Liquid, Other PVT measurement

C=CC [propene] + CCCCCC
Settings | mass density [kg/m3]
325.5 K, 6800 kPa, x1 = 0.8985 | 488.5
325.5 K, 10700 kPa, x1 = 0.8985 | 500.7
325.5 K, 13800 kPa, x1 = 0.8985 | 508.3
325.5 K, 16100 kPa, x1 = 0.8985 | 513.5
325.5 K, 20900 kPa, x1 = 0.8985 | 523.6
325.5 K, 27600 kPa, x1 = 0.8985 | 535.1
325.5 K, 34300 kPa, x1 = 0.8985 | 544.8
325.5 K, 41300 kPa, x1 = 0.8985 | 554.1
325.5 K, 48200 kPa, x1 = 0.8985 | 561.7
325.5 K, 51600 kPa, x1 = 0.8985 | 566.7
325.5 K, 55000 kPa, x1 = 0.8985 | 569.5
325.5 K, 58400 kPa, x1 = 0.8985 | 574.2
325.5 K, 61800 kPa, x1 = 0.8985 | 576.8
325.5 K, 64200 kPa, x1 = 0.8985 | 580.1
325.5 K, 67100 kPa, x1 = 0.8985 | 582.4
370.2 K, 5200 kPa, x1 = 0.9003 | 385.2
370.2 K, 5900 kPa, x1 = 0.9003 | 392.1
370.2 K, 7300 kPa, x1 = 0.9003 | 406
370.2 K, 10700 kPa, x1 = 0.9003 | 429.7
370.2 K, 14200 kPa, x1 = 0.9003 | 447.3
370.2 K, 17300 kPa, x1 = 0.9003 | 459.2
370.2 K, 20800 kPa, x1 = 0.9003 | 469.1
370.2 K, 24100 kPa, x1 = 0.9003 | 478.3
370.2 K, 31300 kPa, x1 = 0.9003 | 495.2
370.2 K, 38000 kPa, x1 = 0.9003 | 508.5
370.2 K, 44600 kPa, x1 = 0.9003 | 519.7
370.2 K, 46900 kPa, x1 = 0.9003 | 523.6
370.2 K, 48000 kPa, x1 = 0.9003 | 523.6
370.2 K, 50600 kPa, x1 = 0.9003 | 529.1
370.2 K, 51400 kPa, x1 = 0.9003 | 529.1
370.2 K, 57800 kPa, x1 = 0.9003 | 538.5
370.2 K, 61800 kPa, x1 = 0.9003 | 544.3
370.2 K, 67100 kPa, x1 = 0.9003 | 550.3
374.1 K, 2800 kPa, x1 = 0.606 | 465.7
374.1 K, 2900 kPa, x1 = 0.606 | 467
374.1 K, 3800 kPa, x1 = 0.606 | 471.2
374.1 K, 5500 kPa, x1 = 0.606 | 479
374.1 K, 7300 kPa, x1 = 0.606 | 486.2
374.1 K, 10600 kPa, x1 = 0.606 | 497.9
374.1 K, 17400 kPa, x1 = 0.606 | 515.3
374.1 K, 24000 kPa, x1 = 0.606 | 528.5
374.1 K, 31000 kPa, x1 = 0.606 | 540.7
374.1 K, 37900 kPa, x1 = 0.606 | 551.3
374.1 K, 38000 kPa, x1 = 0.606 | 551.7
374.1 K, 44700 kPa, x1 = 0.606 | 560.9
374.1 K, 51300 kPa, x1 = 0.606 | 569.2
374.1 K, 58100 kPa, x1 = 0.606 | 577.4
374.1 K, 63300 kPa, x1 = 0.606 | 583.4
374.1 K, 66900 kPa, x1 = 0.606 | 587.4
423.6 K, 16600 kPa, x1 = 0.9003 | 385.2
423.6 K, 17400 kPa, x1 = 0.9003 | 389.1
423.6 K, 20800 kPa, x1 = 0.9003 | 408.2
423.6 K, 24300 kPa, x1 = 0.9003 | 424
423.6 K, 31200 kPa, x1 = 0.9003 | 449.1
423.6 K, 37900 kPa, x1 = 0.9003 | 462.3
423.6 K, 44800 kPa, x1 = 0.9003 | 479.8
423.6 K, 51600 kPa, x1 = 0.9003 | 493
423.6 K, 58300 kPa, x1 = 0.9003 | 504.1
423.6 K, 59400 kPa, x1 = 0.9003 | 504.8
423.6 K, 63700 kPa, x1 = 0.9003 | 512.3
423.6 K, 67100 kPa, x1 = 0.9003 | 516.8
424 K, 10100 kPa, x1 = 0.606 | 427.5
424 K, 17500 kPa, x1 = 0.606 | 462.7
424 K, 24300 kPa, x1 = 0.606 | 484.2
424 K, 30800 kPa, x1 = 0.606 | 500.6
424 K, 37900 kPa, x1 = 0.606 | 514.3
424 K, 44700 kPa, x1 = 0.606 | 523.9
424 K, 51400 kPa, x1 = 0.606 | 534.9
424 K, 58300 kPa, x1 = 0.606 | 546
424 K, 63000 kPa, x1 = 0.606 | 551
424 K, 66900 kPa, x1 = 0.606 | 556
424.7 K, 4800 kPa, x1 = 0.4466 | 433.6
424.7 K, 7200 kPa, x1 = 0.4466 | 448.4
424.7 K, 10700 kPa, x1 = 0.4466 | 467.6
424.7 K, 17400 kPa, x1 = 0.4466 | 492.5
424.7 K, 21000 kPa, x1 = 0.4466 | 502.4
424.7 K, 24300 kPa, x1 = 0.4466 | 511.5
424.7 K, 31000 kPa, x1 = 0.4466 | 525
424.7 K, 37800 kPa, x1 = 0.4466 | 537.6
424.7 K, 44700 kPa, x1 = 0.4466 | 548.4
424.7 K, 51500 kPa, x1 = 0.4466 | 558.4
424.7 K, 58300 kPa, x1 = 0.4466 | 567.4
424.7 K, 63900 kPa, x1 = 0.4466 | 573.9
424.7 K, 67500 kPa, x1 = 0.4466 | 578.1
425 K, 1800 kPa, x1 = 0.1414 | 494.2
425 K, 3700 kPa, x1 = 0.1414 | 504.2
425 K, 5100 kPa, x1 = 0.1414 | 510.4
425 K, 7000 kPa, x1 = 0.1414 | 517.7
425 K, 10400 kPa, x1 = 0.1414 | 528.7
425 K, 17300 kPa, x1 = 0.1414 | 546.6
425 K, 17500 kPa, x1 = 0.1414 | 547.3
425 K, 20600 kPa, x1 = 0.1414 | 553.9
425 K, 24100 kPa, x1 = 0.1414 | 561.4
425 K, 27600 kPa, x1 = 0.1414 | 567.6
425 K, 30900 kPa, x1 = 0.1414 | 573.2
425 K, 34300 kPa, x1 = 0.1414 | 578.9
425 K, 37800 kPa, x1 = 0.1414 | 584.7
425 K, 41100 kPa, x1 = 0.1414 | 589.1
425 K, 44600 kPa, x1 = 0.1414 | 594.3
425 K, 51900 kPa, x1 = 0.1414 | 603.8
425 K, 54400 kPa, x1 = 0.1414 | 607.1
425 K, 58600 kPa, x1 = 0.1414 | 612.3
425 K, 61800 kPa, x1 = 0.1414 | 615.7
425 K, 63600 kPa, x1 = 0.1414 | 617.9
425 K, 66700 kPa, x1 = 0.1414 | 621
500.9 K, 12400 kPa, x1 = 0.1414 | 449.6
500.9 K, 13900 kPa, x1 = 0.1414 | 457.6
500.9 K, 20800 kPa, x1 = 0.1414 | 486.8
500.9 K, 24600 kPa, x1 = 0.1414 | 500.5
500.9 K, 27500 kPa, x1 = 0.1414 | 508.9
500.9 K, 31000 kPa, x1 = 0.1414 | 517.7
500.9 K, 37300 kPa, x1 = 0.1414 | 531.3
500.9 K, 37900 kPa, x1 = 0.1414 | 531.3
500.9 K, 41400 kPa, x1 = 0.1414 | 537.5
500.9 K, 44700 kPa, x1 = 0.1414 | 543.2
500.9 K, 44800 kPa, x1 = 0.1414 | 543.5
500.9 K, 47100 kPa, x1 = 0.1414 | 549
500.9 K, 48100 kPa, x1 = 0.1414 | 549
500.9 K, 51500 kPa, x1 = 0.1414 | 554.6
500.9 K, 54900 kPa, x1 = 0.1414 | 559.9
500.9 K, 58400 kPa, x1 = 0.1414 | 565.4
500.9 K, 61800 kPa, x1 = 0.1414 | 569.8
500.9 K, 64600 kPa, x1 = 0.1414 | 574
500.9 K, 67400 kPa, x1 = 0.1414 | 577.4
501 K, 7900 kPa, x1 = 0.4466 | 293.3
501 K, 9200 kPa, x1 = 0.606 | 230.6
501 K, 9700 kPa, x1 = 0.4466 | 331
501 K, 10100 kPa, x1 = 0.4466 | 330.6
501 K, 10700 kPa, x1 = 0.606 | 272.7
501 K, 12400 kPa, x1 = 0.606 | 306.1
501 K, 12600 kPa, x1 = 0.4466 | 363.8
501 K, 17200 kPa, x1 = 0.4466 | 401.7
501 K, 17300 kPa, x1 = 0.606 | 362
501 K, 20700 kPa, x1 = 0.606 | 386.4
501 K, 21900 kPa, x1 = 0.4466 | 428.7
501 K, 22000 kPa, x1 = 0.4466 | 433.3
501 K, 24000 kPa, x1 = 0.4466 | 436.5
501 K, 24400 kPa, x1 = 0.4466 | 440.8
501 K, 25200 kPa, x1 = 0.606 | 411.3
501 K, 29000 kPa, x1 = 0.606 | 429
501 K, 31000 kPa, x1 = 0.606 | 435.7
501 K, 31200 kPa, x1 = 0.4466 | 463.6
501 K, 34600 kPa, x1 = 0.4466 | 473.3
501 K, 37900 kPa, x1 = 0.4466 | 482.2
501 K, 37900 kPa, x1 = 0.606 | 455.7
501 K, 44800 kPa, x1 = 0.606 | 473.6
501 K, 45000 kPa, x1 = 0.4466 | 497.7
501 K, 51400 kPa, x1 = 0.606 | 485.9
501 K, 51600 kPa, x1 = 0.4466 | 509.9
501 K, 57900 kPa, x1 = 0.4466 | 519.9
501 K, 58400 kPa, x1 = 0.606 | 500
501 K, 63000 kPa, x1 = 0.606 | 506.6
501 K, 63200 kPa, x1 = 0.4466 | 527.6
501 K, 67000 kPa, x1 = 0.606 | 512.8
501 K, 67200 kPa, x1 = 0.4466 | 533.2
584.6 K, 29000 kPa, x1 = 0.1414 | 449.8
584.6 K, 31100 kPa, x1 = 0.1414 | 456.9
584.6 K, 34700 kPa, x1 = 0.1414 | 468.2
584.6 K, 37900 kPa, x1 = 0.1414 | 478
584.6 K, 41400 kPa, x1 = 0.1414 | 487.3
584.6 K, 44800 kPa, x1 = 0.1414 | 495.6
584.6 K, 45100 kPa, x1 = 0.1414 | 496.5
584.6 K, 48100 kPa, x1 = 0.1414 | 503.4
584.6 K, 51700 kPa, x1 = 0.1414 | 510.7
584.6 K, 55100 kPa, x1 = 0.1414 | 517.4
584.6 K, 58400 kPa, x1 = 0.1414 | 523.9
584.6 K, 61800 kPa, x1 = 0.1414 | 529
584.6 K, 64200 kPa, x1 = 0.1414 | 532.9
584.6 K, 67400 kPa, x1 = 0.1414 | 537.5
